In ChEMBL document CHEMBL1141762, “Morphinane alkaloids with cell protective effects from Sinomenium acutum” (J Nat Prod, 2005) one finds Activity data, which are given here for three compounds.

The source made the active and inactive calls. No cut-off for these calls is given here.

The assay has as its system PC-12. The assay is described as follows: Cell protective activity against rat PC12 cells assessed as protection against H2O2-induced injury. The format is functional, cell-based.
`COC1=C[C@H]2[C@H]3Cc4ccc(OC)c(O)c4[C@@]2(CCN3)C[C@@H]1O`: the result was Active.

For the compound `COC1=C[C@H]2[C@H]3Cc4ccc(OC)c(O)c4[C@@]2(CCN3)CC1=O`, the outcome was Active.

On to `COC1=C[C@]23CCN(C)[C@H](Cc4ccc(OC)c(O)c42)C3=CC1=O`, for which the outcome was Active.
